Data on 2 substances can be found in article PMC6444592, “Citrullination of HP1γ chromodomain affects association with chromatin” (Epigenetics & Chromatin, 2019).

Entries after “also recorded” stand apart in the source; their conditions may differ.

The test system of test [1] is H3K9me3(1–16) peptides. In words: bio-layer interferometry (BLI). The following applies: 20 mM Hepes KOH pH 7.2, 70 mM KCl; GST fusion; association 120 s, dissociation 120 s; WT 28.0 μM, R38/9K 25.5 μM, R38/9A 28.3 μM and lower concentrations. Type of test: binding. As for the experimental part: Recombinant mouse full-length HP1 wildtype and mutant proteins were expressed in (as GST fusion proteins), and purified from, Escherichia coli as described. Proteins were concentrated using Amicon Ultra centrifugation filters with a 30 kDa cutoff (Millipore), washed into binding buffer (20 mM Hepes KOH pH 7.2, 70 mM KCl, 1 mM DTT, 0.1% Tween-20, 5% glycerol). Protein concentrations were determined by Bradford protein assay against a BSA standard, and purity was verified by SDS-PAGE followed by Coomassie-blue staining. Real-time binding assays of GST-HP1γ were performed using the BLItz® system (ForteBio) in binding buffer (+ 0.1% BSA). Biotinylated H3(1–16) peptides (NH2-[…](me3)STGGKAP-Biotin) were immobilised to Dip and Read High Precision Streptavidin (SAX) Biosensors (ForteBio), and kinetics for a range of protein concentrations were measured under advanced kinetics settings (1. initial baseline measuring buffer only: 30 s, 2. loading of peptides onto sensors: 120 s, 3. effective baseline measurement: 30 s, 4. association of GST-HP1γ proteins: 120 s, 5. dissociation of GST-HP1γ proteins: 120 s). The data were normalised to the effective baseline signal by subtracting the average baseline value (150–180 s) from each data point (150–420 s). […] Raw data are summarised in Additional file 3: Table S1.
On the technique in general: In BLI a coated tip is dipped into the sample, and binding shifts an interference pattern.

Test [2] has as its system mESCs. As to the kind of experiment: pluripotency marker mRNA (RT-PCR) and morphology of mESCs. Type of test: cell-based, mouse. As to conditions: mESCs stably expressing fusion protein; +/− LIF; n = 2. The method, then: (§1) Parental E14 mouse embryonic stem cell (mESC) line was profiled by transcriptome analysis, qPCR and potency assays and was routinely tested for mycoplasma contamination and tested negative. Cells were cultured in DMEM (Gibco) supplemented with 15% standard FCS (Gibco), 0.1 mM non-essential amino acids (Gibco), 1% penicillin/streptomycin, 2 mM L-glutamine (Gibco), 1 mM sodium pyruvate (Gibco), 0.1 mM β-mercaptoethanol (Life Technologies) and 10^6 units/l mLIF (ESGRO, Millipore). E14 cells were stored in incubators at 37 °C in 7.5% CO2 (100% humidity) and maintained in 0.1% gelatin coated 10-cm culture dishes with 1:6 passaging every 2 days. Media was changed on a daily basis. E14 ESCs expressing mouse mEos3.2–HaloTag-HP1 fusion proteins were generated by transfecting appropriate pSB7 plasmids into E14 cells using Lipofectamine 2000 transfection reagent (Invitrogen), followed by selection in 600 µg/ml geneticin (Life Technologies). After 2 weeks of geneticin selection, cells were sorted using a Sony SH800S cell sorter for the expression of mEos3.2. […]
Cells were lysed using QIAzol® lysis reagent (Qiagen) and total RNA was isolated using RNeasy® Mini Kit with in column DNase treatment (Qiagen). […] Relative expression was calculated with the 2^−ΔΔCt method, normalising to the housekeeping gene β-actin. Data were analysed using GraphPad Prism 7 software. […]

The test system of test [3] is mESCs. In words: HP1γ foci formation, fluorescence imaging of mEos3.2. As to conditions: +/− LIF 72 h. Format: cell-based, mouse. As for the experimental part:
as §1, with “Technologies).” for “Technologies). After 2 weeks of geneticin selection, cells were sorted using a Sony SH800S cell sorter for the expression of mEos3.2.”
An IX73 Olympus inverted microscope was used with circularly polarised laser beams aligned and focused at the back aperture of an Olympus 1.40 NA 100 × oil objective (Universal Plan Super Apochromat, 100 × , NA 1.40, UPLSAPO100XO/1.4). […] The fluorescence emission was collected through the same objective and then further filtered using a combination of long-pass and band-pass filters (BLP01-561R and FF01-587/35 for 561 nm excitation). […]

Test [4] has as its system H3K9me3(1–16) peptides. In words: peptide pulldown assay. Format: binding. The following applies: 300 mM NaCl HBS-EP; Coomassie gel; n = 3 (p values 0.021, 0.008; ns 0.181). The method, then: H3K9me3 or unmethylated H3(1–16) peptides, linked to Dynabeads MyOne streptavidin T1 (Thermo Fisher Scientific), were used in pulldown assays with eluted GST-HP1 in HBS-EP (300 mM NaCl, 10 mM HEPES KOH pH 7.4, 5 mM EDTA and 0.2% NP-40). Pulldown assays were performed in 300 mM NaCl HBS-EP as previously described. Samples were resuspended in 2 × Laemmli buffer and resolved by SDS-PAGE followed by Coomassie-blue staining. Images were quantified using ImageJ software.

Turning to “HP1γWT: full-length mouse HP1γ wild type, as GST or mEos3.2–HaloTag fusion protein”, the “BLI binding, in words” value in the test with H3K9me3(1–16) peptides [1] is “binds exclusively to H3K9me3 peptides”. For the same substance, the “effect of exogenous expression on pluripotency marker mRNA and morphology” value in the test with mESCs [2] is given as “no discernible effect on mESC differentiation”. Moreover, the “foci formation, WT- versus R38/9A-expressing cells” value with mESCs [3] is listed as “no apparent difference”.
On to “HP1γR38/9A: HP1γ with alanine substitutions at amino acids 38 and 39 to mimic citrullination”, for which the “binding in pulldown, in words” value in the test on H3K9me3(1–16) peptides [4] is “significantly reduced”. Moreover, the “BLI binding, in words” value in the test on H3K9me3(1–16) peptides [1] is reported as “begin to plateau at significantly lower amounts compared to the WT protein; also recorded: distinctly different kinetic behaviour compared to the WT protein”. In addition, the “effect of exogenous expression on pluripotency marker mRNA and morphology” value in the test with mESCs [2] is given as “no discernible effect on mESC differentiation”. Also, the “foci formation, WT- versus R38/9A-expressing cells” value with mESCs [3] was “no apparent difference”.
